From patent publication US20110224231A1, “Novel Lactams as Beta Secretase Inhibitors” (Pfizer Inc., priority 2008, published 2011)
Counter-ions that a name gives are not always drawn.

biological target: T1, soluble human BACE (Homo sapiens, UniProt P56817); assay: BACE activity Cell Free Assay (ELISA of cleaved synthetic APP substrate); type: biochemical; settings: not given
T1 construct: cells secreting human recombinant soluble BACE; made in house; conditioned medium
T1 sequence (P56817 46-457 limits assumed): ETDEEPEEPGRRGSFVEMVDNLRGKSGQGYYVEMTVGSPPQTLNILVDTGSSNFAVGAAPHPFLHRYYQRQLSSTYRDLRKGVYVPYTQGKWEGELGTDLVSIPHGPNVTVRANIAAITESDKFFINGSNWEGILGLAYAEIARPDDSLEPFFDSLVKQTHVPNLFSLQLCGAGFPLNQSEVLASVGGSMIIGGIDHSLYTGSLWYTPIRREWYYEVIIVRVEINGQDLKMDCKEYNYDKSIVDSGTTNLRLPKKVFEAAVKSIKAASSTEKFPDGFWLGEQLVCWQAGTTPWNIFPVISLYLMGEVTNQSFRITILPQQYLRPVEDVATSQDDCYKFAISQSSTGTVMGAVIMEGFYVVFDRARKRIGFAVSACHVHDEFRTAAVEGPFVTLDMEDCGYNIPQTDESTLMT

| SMILES | IC50 [nM] |
| --- | --- |
| Cc1cccc(N2C(=O)C=C[C@]23CCN(Cc2ccc(O)c(-c4sccc4C)c2)[C@@H](C)C3)n1 [#136, (5R,7S)-8-[4-hydroxy-3-(3-methyl-2-thienyl)benzyl]-7-methyl-1-(6-methylpyridin-2-yl)-1,8-diazaspiro[4.5]dec-3-en-2-one] | 1 to 1000 |
| Cc1cccc(N2C(=O)C=C[C@]23CCN(Cc2scnc2CC2CCC2)[C@@H](C)C3)n1 [#137, (5R,7S)-8-{[4-(cyclobutylmethyl)-1,3-thiazol-5-yl]methyl}-7-methyl-1-(6-methylpyridin-2-yl)-1,8-diazaspiro[4.5]dec-3-en-2-one] | 1000 to 10000 |
| CCCn1nccc1CN1CC[C@]2(C=CC(=O)N2c2cccc(C)n2)C[C@@H]1C [#138, (5R,7S)-7-methyl-1-(6-methylpyridin-2-yl)-8-[(1-propyl-1H-pyrazol-5-yl)methyl]-1,8-diazaspiro[4.5]dec-3-en-2-one] | 10000 to 100000 |
| Cc1cccc(N2C(=O)C=C[C@]23CCN(Cc2ccc4cnn(C(C)C)c4c2)[C@@H](C)C3)n1 [#139, (5R,7S)-8-[(1-isopropyl-1H-indazol-6-yl)methyl]-7-methyl-1-(6-methylpyridin-2-yl)-1,8-diazaspiro[4.5]dec-3-en-2-one] | 100000 to 300000 |
| C[C@H]1C[C@@]2(C=CC(=O)N2c2cnccn2)CCN1Cc1ccc(O)c(Cl)c1 [#140, (5R,7S)-8-(3-chloro-4-hydroxybenzyl)-7-methyl-1-pyrazin-2-yl-1,8-diazaspiro[4.5]dec-3-en-2-one, ammonium salt] | 10000 to 100000 |
| Cc1cccc(N2C(=O)C=C[C@]23CCN(Cc2ccc(O)c(Cl)c2)[C@@H](C)C3)n1 [#141, (5R,7S)-8-(3-chloro-4-hydroxybenzyl)-7-methyl-1-(6-methylpyridin-2-yl)-1,8-diazaspiro[4.5]dec-3-en-2-one, ammonium salt] | 1000 to 10000 |
| CC(C)Cc1ocnc1CN1CC[C@]2(C=CC(=O)N2c2cccc(F)c2)C[C@@H]1C [#200] | 1000 to 10000 |
| C[C@H]1C[C@@]2(C=CC(=O)N2c2cccc(F)c2)CCN1Cc1ccc(O)c(Cl)c1 [#201] | 1000 to 10000 |
| Cc1ccccc1-c1cc(CN2CC[C@]3(C=CC(=O)N3c3cccc(F)c3)C[C@@H]2C)ccc1O [#202] | 1 to 1000 |
| CC[C@@H](C)Oc1cccc(CN2CC[C@]3(C=CC(=O)N3c3cccc(F)c3)C[C@@H]2C)c1 [#203] | 1000 to 10000 |
| CC(C)C(=O)c1cc(CN2CC[C@]3(C=CC(=O)N3c3cccc(F)c3)C[C@@H]2C)ccc1O [#204] | 1000 to 10000 |
| CC(C)C(O)c1cc(CN2CCC3(C=CC(=O)N3c3cccc(F)c3)CC2C)ccc1O (stereo not drawn) [#205] | 1 to 1000 |
| C[C@H]1C[C@@]2(C=CC(=O)N2c2cccc(F)c2)CCN1Cc1ccc(O)c(-c2ccccc2Cl)c1 [#206] | 1 to 1000 |
| C[C@H]1C[C@@]2(C=CC(=O)N2c2cccc(F)c2)CCN1Cc1ncoc1-c1ccccc1 [#207] | 10000 to 100000 |
| C[C@H]1C[C@@]2(C=CC(=O)N2c2cccc(F)c2)CCN1Cc1ccc(O)c(-c2ccccc2F)c1 [#208] | 1 to 1000 |
| Cc1ccc(F)cc1-c1cc(CN2CC[C@]3(C=CC(=O)N3c3cccc(F)c3)C[C@@H]2C)ccc1O [#209] | 1 to 1000 |
| C[C@H]1C[C@@]2(C=CC(=O)N2c2cccc(F)c2)CCN1Cc1scnc1CC1CC1 [#210] | 1 to 1000 |
| C[C@H]1C[C@@]2(C=CC(=O)N2c2cccc(F)c2)CCN1Cc1scnc1CC1CCC1 [#211] | 1 to 1000 |
| Cc1ccsc1-c1cc(CN2CC[C@]3(C=CC(=O)N3c3cccc(F)c3)C[C@@H]2C)ccc1O [#212] | 1 to 1000 |
| CC(C)Cc1ocnc1CN1CC[C@]2(CCC(=O)N2c2cccc(F)c2)C[C@@H]1C [#213] | 10000 to 100000 |
| C[C@H]1C[C@@]2(CCC(=O)N2c2cccc(F)c2)CCN1Cc1ccc(O)c(Cl)c1 [#214] | 1000 to 10000 |
| Cc1ccccc1-c1cc(CN2CC[C@]3(CCC(=O)N3c3cccc(F)c3)C[C@@H]2C)ccc1O [#215] | 1 to 1000 |
| CC[C@@H](C)Oc1cccc(CN2CC[C@]3(CCC(=O)N3c3cccc(F)c3)C[C@@H]2C)c1 [#216] | 1000 to 10000 |
| Cc1ccsc1-c1cc(CN2CC[C@]3(CCC(=O)N3c3cccc(F)c3)C[C@@H]2C)ccc1O [#217] | 1000 to 10000 |
| CC(C)Oc1cc(CN2CC[C@]3(C=CC(=O)N3c3cccc(F)c3)C[C@@H]2C)ccc1O [Example 87, (5R7S)-1-(3-fluorophenyl)-8-(4-hydroxy-3-isopropoxybenzyl)-7-methyl-1,8-diazaspiro[4,5]dec-3-en-2-one hydrochloride] | 1 to 1000 |
| Cc1ccccc1-c1cccc(CN2CC[C@]3(CCC(=O)N3c3cccc(F)c3)C[C@@H]2C)c1 [Example 88, (5R,7S)˜1˜(3˜fluorophenyl)˜7˜methyl˜8˜[(2′˜methylbiphenyl˜3˜yl)methyl]˜1,8˜diazaspiro[4.5]decan˜2˜one hydrochloride] | 1000 to 10000 |
| CC(C)Oc1cc(CN2CC[C@]3(CCC(=O)N3c3cccc(F)c3)C[C@@H]2C)ccc1O [Example 89, (5R,7S)˜1˜(3˜fluorophenyl)˜8˜(4˜hydroxy˜3˜isopropoxybenzyl)˜7˜methyl˜1,8˜diazaspiro[4.5]decan˜2˜one hydrochloride] | 1 to 1000 |
| CC(C)Oc1cccc(CN2CC[C@]3(CC(C)C(=O)N3c3cccc(F)c3)C[C@@H]2C)c1 (stereo partly drawn) [Example @96, (5R,7S)˜1˜(3˜Fluorophenyl)˜8˜(3˜isopropoxybenzyl)˜3,7˜dimethyl˜1,8˜diazaspiro[4.5]decan˜2˜one, hydrochloride salt] | 10000 to 100000 |
| CC(C)Oc1cc(CN2CC[C@]3(C=C(c4ccccc4)C(=O)N3c3cccc(F)c3)C[C@@H]2C)ccc1O [Example @97, (5R,7S)-1-(3-Fluorophenyl)-8-(4-hydroxy-3-isopropoxybenzyl)-7-methyl-3-phenyl-1,8-diazaspiro[4.5]dec-3-en-2-one, hydrochloride salt] | 1000 to 10000 |
| CC1=C[C@]2(CCN(Cc3ccc(O)c(OC(C)C)c3)[C@@H](C)C2)N(c2cccc(F)c2)C1=O [Example @98, (5R,7S)-1-(3-Fluorophenyl)-8-(4-hydroxy-3-isopropoxybenzyl)-3,7-dimethyl-1,8-diazaspiro[4.5]dec-3-en-2-one, hydrochloride salt] | 1 to 1000 |

same assay, conditions: Table 6; cell free, soluble human BACE, pH 4.5, 3 μM substrate; read-out: BACE Activity (Cell Free Assay IC50)

| SMILES | IC50 [nM] |
| --- | --- |
| CC(C)Oc1cccc(CN2CC[C@]3(C=CC(=O)N3CC3CC3)C[C@@H]2C)c1 [Example @93, (5R,7S)-1-(cyclopropylmethyl)-8-(3-isopropoxybenzyl)-7-methyl-1,8-diazaspiro[4.5]dec-3-en-2-one] | 100000 to 300000 |
| CCCN1C(=O)C=C[C@]12CCN(Cc1cccc(OC(C)C)c1)[C@@H](C)C2 [Example @94, (5R,7S)˜8˜(3˜isopropoxybenzyl)˜7˜methyl˜1˜propyl˜1,8-diazaspiro[4.5]dec˜3˜en˜2˜one] | 100000 to 300000 |
| CC(C)Oc1cccc(CN2CC[C@]3(C=CC(=O)N3C3CC3)C[C@@H]2C)c1 [Example @95, (5R,7S)-1-Cyclopropyl-8-(3-isopropoxybenzyl)-7-methyl-1,8-diazaspiro[4.5]dec-3-en-2˜one, trifluoroacetate salt] | 100000 to 300000 |
